melting point | Compound
134 to 135 °C | CCOC(=O)c1ccc(CCNc2ncnc(CC)c2Cl)cc1
139 to 140 °C | CC(Cc1ccc(F)cc1)(NC(=O)CNC(=O)CN)c1ccc(F)cc1 (stereo not drawn)
102 °C | CN(C)C(=O)Sc1ccccc1C(=O)c1ccc(C#N)cc1
163 to 164 °C | CN(C(CCn1c(=O)cc(C(F)(F)F)[nH]c1=O)C(=O)NO)S(=O)(=O)c1ccc(Oc2ccc(F)cc2)cc1 (stereo not drawn)
101 to 102 °C | C=CCN1CCCC1CNC(=O)c1cc(S(=O)(=O)NC)cc2c1OCCO2 (stereo not drawn)
151 to 156 °C | CCc1cn(C2OC(CNC(=O)C(C)Oc3cc(OC)c(Cl)cc3Cl)C(O)C2F)c(=O)[nH]c1=O (stereo not drawn)
> 210 °C | N#CNC(=S)Nc1cccc([N+](=O)[O-])c1
117 to 118 °C | O=C(NOCC(O)CO)c1ccc(F)c(F)c1Nc1ccc(I)cc1F (stereo not drawn)
200 to 210 °C | CC(=O)OC(OC(C)=O)c1cc(Br)c(C(OC(C)=O)OC(C)=O)cc1Br
123 to 125 °C | O=C(O)[C@H](CC1CC1)N1C(=O)NC(C(F)(F)F)(C(F)(F)F)C1=O
284 to 285 °C | CC1=C(Nc2ccc(C3=NNC(=O)CC3)cc2)CCC1=O
175 to 177 °C | O=C(O)C(Sc1nc2ccc(Cl)nc2s1)c1ccccc1 (stereo not drawn)
132 to 134 °C | COc1ccc(C2=NN(C3CCN(C(=O)CCSCCNC(=O)OC(C)(C)C)CC3)C(=O)[C@@H]3CC=CC[C@H]23)cc1OC
142 to 144 °C | Cc1cccc(S(=O)(=O)n2cncn2)c1C#N
96 °C | Cc1ccc(=S)n(-c2cccc(C(F)(F)F)c2)c1
184 °C | CN(C)CCNC(=O)c1cc(-c2cccc(Cl)c2)c2cc(C(c3ccc(Cl)cc3)c3cncn3C)ccc2n1 (stereo not drawn)
75 to 77 °C | O=C(C#Cc1cccc(OCc2ccccc2)c1)c1ccccc1
207 to 209 °C | CC(C)c1c(C=CC2CC(O)CC(O)O2)n(CC2CCCCC2)c(=O)c2ccccc12 (mixture of isomers)
214 °C | Cc1c(N2CCC(C)(NC(=O)OC(C)(C)C)C2)c(F)c(N)c2c(=O)c(C(=O)O)cn(C3CC3)c12 (stereo not drawn)
105 to 108 °C | Cc1cccc(-c2[nH]c(C(C)C)nc2-c2ccc(F)c(-c3ccc(S(C)(=O)=O)cn3)c2)n1
185 to 187 °C | CC(Cl)(Cl)C(NC(=O)c1ccc(Cl)cc1)NC(=NC#N)Nc1cccnc1 (stereo not drawn)
78.5 to 79.5 °C | COC(c1cc(C)no1)c1ccccc1COc1cc(Cl)ccc1Cl (stereo not drawn)
142 to 144 °C | COC(=O)C(=O)c1c(Cl)cc(OCCOc2ccc3ccccc3c2)cc1Cl

melting point | Compound
55 to 63 °C | COC(=O)C(C)c1ccc(OCCNC(=O)C2Cc3ccccc3N2S(=O)(=O)c2ccc(-c3cc(C(F)(F)F)ccc3Cl)cc2)cc1 (stereo not drawn)
172 to 177 °C | COc1ccc([N+](=O)[O-])cc1NC(C)=O
110 to 111 °C | CSc1nc(Cl)c(-c2c(F)cc(F)cc2F)c(N2CCCC(C)O2)n1 (stereo not drawn)
184 to 185 °C | Cc1cc(C(=O)N2CCC3(CC2)CSC2=C(O3)c3ccccc3C(=O)C2=O)nn1C
166 to 168 °C | CC1CCCN1c1nc(C#N)nc(Cl)c1/C(Br)=C(\Br)[Si](C)(C)C (stereo not drawn)
193 to 196 °C | O=C(Nc1ccc(-n2nc(C(F)(F)F)cc2C2CC2)c(F)c1)c1c(F)cccc1F
183 to 185 °C | Nc1nc(NCc2ccccc2)nc(C(F)(F)F)n1
245 to 246 °C | Cc1nc(C)c(-c2ccnc(Nc3ccc(Cl)c(CO)c3)n2)s1
108 to 109 °C | Cc1c(C)c2c(c(C)c1N)CC(C)(CSCCO)O2 (stereo not drawn)
177 to 178 °C | COc1ccc(-c2c(Br)c(CBr)nc3sc4c(c23)CCN(Cc2ccccc2)C4)cc1
62 to 64 °C | COC(=O)CCC(=O)c1ccc(OC(=S)N(C)C)cc1
203 to 208 °C | O=C(Nc1nc(-c2ccco2)c(-c2ccncc2)s1)c1ccnc(CN2CCC(O)CC2)c1
135 to 137 °C | Cc1ccc(Cl)c(Nc2ccccc2-c2nsc(=O)o2)c1Cl
90 to 92 °C | O=S(=O)(NC(CO)CO)c1ccc(Cl)s1
256 to 260 °C | O=c1cc(OCC2CCCCC2)cc[nH]1
54 to 74 °C | CC(C)(C)OC(=O)N[C@@H](Cc1ccccc1)C(=O)N1CCN(C(c2ccc(F)cc2)c2ccc(F)cc2)CC1
76 to 77 °C | Cc1ccc(OC(=O)N2CCC[C@H]2C(=O)O)cc1
158 to 160 °C | CNc1cc(Oc2cccc(C(F)(F)F)c2)nc(C(=O)Nc2ccccc2)c1
122 to 123 °C | CCOC(=O)c1c(OC)c2cc(Cl)ccc2c(=O)n1C
113 to 115 °C | Cc1cnc(-n2ccc(C(F)(F)F)n2)nc1Oc1csc(C(F)(F)F)c1
188 to 190 °C | Cc1nc(-c2ccc(=O)[nH]c2C)cs1
175 to 179 °C | ON=Cc1ccc(OCc2csc(-c3ccccc3)n2)cc1
165 to 169 °C | N#CCc1cccc2c(-c3ccc(Cl)cc3)onc12

melting point | Compound
293 to 295 °C | COc1ccc(Cl)cc1-c1c(N)c(=O)[nH]c2cc([N+](=O)[O-])ccc12
150 °C | Cc1ccc2cc(-c3cccc4ccccc34)nc(N3CCN(C)CC3)c2c1
123 to 124 °C | CC(=O)n1ccc2c(I)ncnc21
60 °C | c1ccc(OCCSCc2nnc(-c3ccc(OCCCN4CCC4)cc3)o2)cc1
183 to 185 °C | CC(C)CCNC(Nc1ccccc1)=C(C#N)C#N
175 to 176 °C | CN(C)C1CC2=CNC=C3C=C(C=O)OCC1=C32 (stereo not drawn)
193 to 197 °C | COc1ccc2c(c1)C(=O)N(c1ccc3c(ccn3C)c1)C2
236 to 237 °C | COC(=O)c1nc(NC(=O)Nc2ccccc2)ccc1Oc1nc(OC)cc(OC)n1
194 °C | CNC(=O)C(NC(=O)c1cn(C)nc1C(F)(F)F)C(CO)c1ccccc1 (stereo not drawn)
260 °C | COc1ccc(C(=O)Oc2cccc3cc4cccc(OC(=O)c5ccc(OC)cc5)c4c(OC(=O)c4ccc(OC)cc4)c23)cc1
78 to 79 °C | COc1cc(C2CCCCC2)c(Cl)cc1CCO
147 to 149 °C | CC(C)C(=O)c1cccn1N1C(=O)c2ccccc2C1=O
93 to 94 °C | COC(=O)c1ccc2scc(Br)c2c1
192 °C | O=C(CC(=O)c1cccc(C(F)(F)F)c1NC(=O)CCl)Nc1nccs1
194 °C | Cc1cccc(N2CCN(c3nnc(Cl)c(C)c3C)CC2)c1C
48 °C | C=CCCn1c(=O)c2c(ncn2CCC)n(C)c1=O
282 to 283 °C | Cc1nnc(-c2ccc3occ(-c4ccc(C(=O)O)c(F)c4)c3c2)o1
107 to 108 °C | N#CCCNC(=O)c1cccc(-c2cccc3oc(Cc4cccc(C(F)(F)F)c4)cc23)c1
278 to 281 °C | O=c1c2cc(O)ccc2[nH]c2c([N+](=O)[O-])cc([N+](=O)[O-])c(Cl)c12
143 to 145 °C | OCc1cccc(C=CC2N=Cc3cc(Cl)ccc3S2)c1 (stereo not drawn)
191 to 192 °C | O=C1c2ccccc2C(=O)c2c1cc(CO)c1c2CCC1
189 to 194 °C | COC(=O)c1cccc(NC(=O)NCC(=O)N(CC(=O)N2CCCC2)c2ccccc2C(=O)c2ccccc2)c1
159 to 160 °C | Cc1nccn1-c1nc(-c2ccc(Cl)cc2)c(CCO)o1

melting point | Compound
177 to 179 °C | c1cc(NC2=NCCN2)ccc1Cc1ccc(N2CCOCC2)cc1
74 to 76 °C | CCc1cn(C(C)C(=O)N(C)C)nc1-c1ccccc1Cl (stereo not drawn)
75 to 80 °C | NC(=NOCC1CC1)c1c(C(F)(F)F)ccc(C(F)(F)F)c1Cl
> 300 °C | Cn1c2cc(Cl)ccc2c2c(=O)[nH]c(-c3ccccc3)nc21
70.5 to 72.5 °C | CCCCCCCCCCCCNC(=O)c1cc(Br)c(OCCn2ccnn2)c(-c2cccc(C(F)(F)F)c2)c1
178 to 180 °C | CC(Oc1ccc(-c2ccc(S(N)(=O)=O)c(F)c2)cc1)C(O)CCc1cccnc1 (stereo not drawn)
143 to 145 °C | O=C(O)C(Cc1occ2ccccc12)NC(=O)C(CS)C(F)(F)F (stereo not drawn)
188 to 190 °C | CCC(=O)c1c(-c2cc(C)c(O)c(C)c2)c(C)n2c1-c1cc(OC)c(OC)cc1CC2
230 °C | Cc1cc(-c2cc(C(F)(F)F)n3ncc(C(=O)Nc4cccc(S(=O)(=O)NC(C)(C)CO)c4)c3n2)ccc1C(F)(F)F
188 to 189 °C | COC(=O)[C@H](Cc1cc(Cl)c(Oc2ccc3cc(OC)ccc3c2)c(Cl)c1)NC(=O)C(F)(F)F
113 to 115 °C | CCOC(=O)c1ccc(N)cc1O
161 to 163 °C | COc1ccc(S(=O)(=O)C(Cc2ccc3ccccc3c2)C(=O)NO)cc1 (stereo not drawn)
> 275 °C | CCOC(=O)CCc1ccc2[nH]c(-c3cccnc3)c(C)c2c1
158 to 160 °C | C[C@@H](n1cnc2c(Cl)cc(Cl)cc2c1=O)[C@](O)(Cn1cncn1)c1ccc(F)cc1F
96 to 98 °C | Nc1ccccc1C(=O)NCCCn1cncn1
125 to 126 °C | COc1ccc(-c2cccc(C(=O)NO)c2C)cc1OCCCCCc1ccccc1
> 250 °C | O=c1ccc2cnc(Nc3ccccn3)nc2n1C1CCCC1
124 to 125 °C | Cc1ccc(Sc2nc(Cl)c(C#N)cc2F)cc1
142 to 144 °C | O=C(NCCc1ccc(OCc2ccccc2)c(OCc2ccccc2)c1CCc1cccc(OCc2ccccc2)c1)C(F)(F)F
107 to 109 °C | CC(C)(C)c1ccc(OCC(O)CN2CCC3(CC2)CSC2=C(O3)c3cc(N4CCOCC4)ccc3C(=O)C2=O)cc1 (stereo not drawn)
159 to 165 °C | COC(=O)CCc1ccc(NC(=O)NNC(C)=O)cc1
196 to 199 °C | COc1ccc2c(c1Br)CCC1C(=O)N(C)C(=O)C21 (stereo not drawn)
94 to 97 °C | CS(=O)(=O)Nc1ccc(CCN2CCN(C(=O)c3ccc4[nH]ccc4c3)CC2)cc1

Compound | melting point
C[C@@H]1CNC[C@H](C)N1c1ncccn1 | 130 to 135 °C
Cc1cccc(Cn2cc(C(=O)C(=O)NC3=CC(=O)OC3)c3ccccc32)c1 | 298 to 300 °C
CC(C)OCC(=O)C1CCC2C3CCC4CC(O)CCC4(C)C3C(=O)CC12C (stereo not drawn) | 121 to 125 °C
COc1ccc2c(c1OC)CCCC2(O)CN (stereo not drawn) | 138 to 140 °C
CCCCCCCC[C@]1(C)OO[C@@H]2C[C@H]1CC(=O)[C@@H]2C | 27 °C
Cc1[nH]c(Cl)c(C#N)c1SC(F)(Cl)Cl | 187 °C

— a melting point compilation (Tetko et al.; mined from patent text by program, amines drawn as free bases though some values may be those of a salt)
